Test results as given in patent US12649748B2, “Wee1 inhibitor and use thereof” (JIANGSU TASLY DIYI PHARMACEUTICAL CO., LTD., priority 2021, dated 2026).
Where two headings read alike, the source gives them in different places.

Columns and labels:
H1299 cells = assay: Anti-proliferative effect by Cell Titer-Glo, H1299; format: cell-based; conditions: Homo sapiens, NCI-H1299, 72 h, read-out: IC50 measured value H1299
Protocol: (§1) Compound solutions of different concentration gradients were prepared. DMSO was dissolved to a concentration of 10 mM test compound and 10 mM reference compound AZD1775, and the compounds were serially diluted in culture medium for a total of 9 dose points, with 2 parallel replicates set at each concentration. The cell growth group without compound was used as a positive control (maximum signal control) and the medium was used as a negative control (minimum signal control), while ensuring that the final level of DMSO in each reaction well was 0.2%. After removing the medium from the 384-well plate, 25 ul of the configured compound at different concentrations was transferred into the well plate and the compound and cells were incubated in the cell incubator at 37° C. with 5% CO2 for 3 days.
(§2) The 384-well plates were removed from the cell incubator and allowed to equilibrate for 1 h to room temperature. 25 ul of Cell Titer-Glo assay was added to each well, lysed on a shaker for 2 min and then read out (Luminescence) using a BMG PHERAStar after 10 min incubation. Calculate the inhibition rate from the luminescence signal: first calculate the average of the positive control (maximum signal control) and the negative control (minimum signal control).
(§3) [formula] to calculate the rate of inhibition of the cells by different concentrations of the compounds. The IC50 of the compound on cell activity inhibition was calculated by fitting a log(inhibitor) vs. response-Variable slope model to GraphPad Prism 6. The fitted equation was: Y=Bottom+(Top−Bottom)/(1+10^((Log IC50−X)*HillSlope)), where Y represents the rate of inhibition and X represents the concentration of the known compound after Log.

Wee1 protein = molecular target: T1, Wee1 protein (Homo sapiens, UniProt P30291); assay: Binding of compound to Wee1 protein and Tracer 178 by TR-FRET; conditions: inhibitory activity against Wee1 kinase, read-out: IC50 measured value
T1 construct: purchased Thermo Fisher PR7373A
T1 sequence (P30291 whole entry): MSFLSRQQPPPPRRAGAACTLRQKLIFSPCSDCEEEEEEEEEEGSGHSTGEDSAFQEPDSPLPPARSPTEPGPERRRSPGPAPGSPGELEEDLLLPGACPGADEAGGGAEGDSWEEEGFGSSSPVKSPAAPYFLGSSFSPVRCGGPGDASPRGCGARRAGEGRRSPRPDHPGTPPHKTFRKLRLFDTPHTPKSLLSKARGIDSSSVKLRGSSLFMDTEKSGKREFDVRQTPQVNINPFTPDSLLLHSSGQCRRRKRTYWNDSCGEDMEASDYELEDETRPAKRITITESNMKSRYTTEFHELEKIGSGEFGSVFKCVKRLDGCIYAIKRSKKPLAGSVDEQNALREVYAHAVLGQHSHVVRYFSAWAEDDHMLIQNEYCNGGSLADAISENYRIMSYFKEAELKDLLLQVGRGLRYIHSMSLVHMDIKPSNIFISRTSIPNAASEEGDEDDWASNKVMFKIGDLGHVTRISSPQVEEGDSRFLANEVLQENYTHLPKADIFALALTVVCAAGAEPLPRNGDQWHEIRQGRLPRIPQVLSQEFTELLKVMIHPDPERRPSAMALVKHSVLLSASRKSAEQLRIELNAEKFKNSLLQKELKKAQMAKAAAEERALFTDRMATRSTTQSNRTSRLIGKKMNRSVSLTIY
Protocol: First, solutions of the compounds in different concentration gradients were prepared. […] DMSO was added as a positive control (maximal signal control) and a negative control (minimal signal control) and a final level of 0.25% DMSO was ensured in each reaction well.
WEE1 (Thermo Fisher, Cat #PR7373A) protein in buffer (50 mM Hepes pH 7.5, 10 mM MgCl2, 1 mM EGTA, 0.01% Brij-35) at 15 nM) in different concentrations of compound, and Tracer 178 (Invitrogen, PV5593) and MAb Anti-GST-Eu crypate (Cisbio, 61GSTKLA) were added to 384-well plates (Corning, cat #3574), centrifuged at 1000 rpm for 1 min and the 384-well plates were incubated in a constant temperature shaker for 60 min at 25° C. and 300 rpm. Tracer 178 and MAb Anti-GST-Eu crypate were prepared in buffer (50 mM HEPES pH 7.5, 10 mM MgCl2, 1 mM EGTA, 0.01% Brij-35) with a final reaction concentration of 50 nM for Tracer 178 and a final concentration of 2 nM for MAb Anti-GST-Eu crypate, where the negative control (minimal signal control) used an equal amount of buffer in place of the protein solution.
After incubation, readings were performed using BMG PHERAStar (excitation light at 337 nm and emission light at wavelength values of 620 nm and 665 nm to read the fluorescence signal values). […] The IC50 for inhibition of enzyme activity by the compounds was then calculated using GraphPad Prism 6 and fitted with a log (inhibitor) vs. response-Variable slope mode. The fitting equation was: Y=Bottom+(Top-Bottom)/(1+10^((Log IC50−X)*HillSlope)), where Y represents the percentage of residual enzyme activity known and X represents the known concentration of compound after the logarithm.

MIA Paca-2 cells = assay: Anti-proliferative effect by Cell Titer-Glo, MIA Paca-2; format: cell-based; conditions: Homo sapiens, read-out: IC50 measured value MIA Paca-2
Protocol: as §1, §2, §3

[1] = H1299 cells, 3 days, Cell Titer-Glo
[2] = 72 h, MIA Paca-2 cells, 3 days, Cell Titer-Glo

Row | SMILES | IC50 (H1299 cells; [1]) | IC50 (Wee1 protein) | IC50 (H1299 cells) | IC50 (MIA Paca-2 cells; [2]) | IC50 (MIA Paca-2 cells; MIA PaCa-2, 72 h)
1 | CN1CCN(c2ccc(Nc3ncc4cnn(-c5cccc(C(C)(O)C(F)(F)F)n5)c4n3)cc2)CC1 (centres unmarked) [Compound 4] | 1000 to 5000 nM | 10 to 100 nM |  |  | 
2 | CN1CCN(c2ccc(Nc3ncc4cnn(-c5cccc(C6(S(C)(=O)=O)CC6)n5)c4n3)cc2)CC1 [Compound 5] |  | 10 to 100 nM | 1000 to 5000 nM |  | 
3 | CS(C)(=O)=Nc1cccc(-n2ncc3cnc(Nc4ccc5c(c4)CNCC5)nc32)n1 [Compound 7] | 1000 to 5000 nM | 1 to 10 nM |  |  | 
4 | CN1CCc2ccc(Nc3ncc4cnn(-c5cccc(N=S(C)(C)=O)n5)c4n3)cc2C1 [Compound 8] | 1000 to 5000 nM | 1 to 10 nM |  |  | 
5 | CN(C)C1CCN(c2ccc(Nc3ncc4cnn(-c5cccc(N=S(C)(C)=O)n5)c4n3)cc2)CC1 [Compound 9] |  | 1 to 10 nM | 1000 to 5000 nM |  | 
6 | CN1CCN(c2ccc(Nc3ncc4cnn(-c5cccc(C(C)(C)O)c5)c4n3)cc2)CC1 [Compound 12] | 100 to 1000 nM | 10 to 100 nM |  |  | 
7 | CN1CC2CC1CN2c1ccc(Nc2ncc3cnn(-c4cccc(N=S(C)(C)=O)n4)c3n2)cc1 (centres unmarked) [Compound 13] | 5000 to 20000 nM | 1 to 10 nM |  |  | 
8 | CS(C)(=O)=Nc1cccc(-n2ncc3cnc(Nc4ccc(CC5C(=O)C6CCN5CC6)cc4)nc32)n1 (centres unmarked) [Compound 15] | 1000 to 5000 nM | 10 to 100 nM |  | 100 to 1000 nM | 
9 | CN1CCN(c2c(Cl)cc(Nc3ncc4cnn(-c5cccc(N=S(C)(C)=O)n5)c4n3)cc2Cl)CC1 [Compound 17] | 5000 to 20000 nM | 10 to 100 nM |  | 100 to 1000 nM | 
10 | CN1CCN(c2ccc(Nc3ncc4cnn(-c5cccc(N=S(C)(C)=O)n5)c4n3)cc2F)CC1 [Compound 19] | 1000 to 5000 nM | 10 to 100 nM |  | 100 to 1000 nM | 
11 | CN1CCN(C2CCN(c3ccc(Nc4ncc5cnn(-c6cccc(N=S(C)(C)=O)n6)c5n4)cc3)CC2)CC1 [Compound 20] | 1000 to 5000 nM | 1 to 10 nM |  | 100 to 1000 nM | 
12 | Cc1cc(Nc2ncc3cnn(-c4cccc(C(C)(C)O)n4)c3n2)ccc1N1CCN(C)CC1 [Compound 21] | 1000 to 5000 nM | 10 to 100 nM |  | 100 to 1000 nM | 
13 | COc1cc(N2CCN(C)CC2)ccc1Nc1ncc2cnn(-c3cccc(N=S(C)(C)=O)n3)c2n1 [Compound 22] | 5000 to 20000 nM | 100 to 1000 nM |  | 5000 to 20000 nM | 
14 | CN1CCN(c2ccc(Nc3ncc4cnn(-c5cccc(N=S(C)(C)=O)n5)c4n3)cc2CO)CC1 [Compound 23] | 100 to 1000 nM | 1 to 10 nM |  | 100 to 1000 nM | 
15 | CN1CCN(c2ccc(Nc3ncc4c(C(F)(F)F)nn(-c5cccc(N=S(C)(C)=O)n5)c4n3)cc2)CC1 [Compound 24] |  | 10 to 100 nM | 1000 to 5000 nM |  | 1000 to 5000 nM
16 | CN1CCC2(CC1)CCN(c1ccc(Nc3ncc4cnn(-c5cccc(N=S(C)(C)=O)n5)c4n3)cc1)CC2 [Compound 25] | 100 to 1000 nM | 1 to 10 nM |  | 100 to 1000 nM | 
17 | COc1cc(Nc2ncc3cnn(-c4cccc(N=S(C)(C)=O)n4)c3n2)ccc1N1CCN(C)CC1 [Compound 26] | 1000 to 5000 nM | 1 to 10 nM |  | 100 to 1000 nM | 

Row | SMILES | IC50 (H1299 cells; [1]) | IC50 (Wee1 protein) | IC50 (H1299 cells) | IC50 (MIA Paca-2 cells; [2]) | IC50 (MIA Paca-2 cells; MIA PaCa-2, 72 h)
18 | CN1CCN(c2ccc(Nc3ncc4c(=O)n(C)n(-c5cccc(N=S(C)(C)=O)n5)c4n3)cc2)CC1 [Compound 27A] | 100 to 1000 nM | 1 to 10 nM |  | 100 to 1000 nM | 
19 | COc1nn(-c2cccc(N=S(C)(C)=O)n2)c2nc(Nc3ccc(N4CCN(C)CC4)cc3)ncc12 [Compound 27B] | 1000 to 5000 nM | 10 to 100 nM |  | 100 to 1000 nM | 
20 | CN1CCN(c2ccc(Nc3ncc4cnn(-c5ccnc(C(C)(C)O)c5)c4n3)cc2)CC1 [Compound 29] | 100 to 1000 nM | 100 to 1000 nM |  | 100 to 1000 nM | 
21 | CN1CCN(c2ccc(Nc3ncc4cnn(-c5cccc(N=S(C)(C)=O)c5)c4n3)cc2)CC1 [Compound 30] |  | 10 to 100 nM | 1000 to 5000 nM |  | 100 to 1000 nM
22 | CN1CCN(c2ccc(Nc3ncc4cnn(-c5cncc(N=S(C)(C)=O)c5)c4n3)cc2)CC1 [Compound 31] | 1000 to 5000 nM | 10 to 100 nM |  | 100 to 1000 nM | 
23 | CN1CCN(c2ccc(Nc3ncc4cnn(-c5cncc(C(C)(C)O)c5)c4n3)cc2)CC1 [Compound 32] | 100 to 1000 nM | 100 to 1000 nM |  | 100 to 1000 nM | 
24 | CN1CCN(c2ccc(Nc3ncc4cnn(-c5cccc(N=S(C)(C)=O)c5F)c4n3)cc2)CC1 [Compound 33] | 1000 to 5000 nM | 100 to 1000 nM |  | 1000 to 5000 nM | 
25 | CN1CCN(c2ccc(Nc3ncc4cnn(-c5cc(C(C)(C)O)ccn5)c4n3)cc2)CC1 [Compound 34] | 100 to 1000 nM | 100 to 1000 nM |  | 100 to 1000 nM | 
26 | CN1CCN(c2ccc(Nc3ncc4c(C(F)(F)F)nn(-c5cccc(C(C)(C)O)c5)c4n3)cc2)CC1 [Compound 35] | 5000 to 20000 nM | 100 to 1000 nM |  | 5000 to 20000 nM | 
27 | CN1CCN(c2ccc(Nc3ncc4cnn(-c5ccc6ccncc6c5)c4n3)cc2)CC1 [Compound 36] | 1000 to 5000 nM | 10 to 100 nM |  | 1000 to 5000 nM | 
28 | CN1CCN(c2ccc(Nc3ncc4cnn(-c5ccc6scnc6c5)c4n3)cc2)CC1 [Compound 37] | 100 to 1000 nM | 10 to 100 nM |  | 100 to 1000 nM | 
29 | CN1CCN(c2ccc(Nc3ncc4cnn(-c5ccc6c(c5)C(=O)NCC6)c4n3)cc2)CC1 [Compound 38] | 100 to 1000 nM | 10 to 100 nM |  | 100 to 1000 nM | 
30 | CN1CCN(c2ccc(Nc3ncc4cnn(-c5ccc6c(c5)C(O)CO6)c4n3)cc2)CC1 (centres unmarked) [Compound 39] | 1000 to 5000 nM | 10 to 100 nM |  | 100 to 1000 nM | 
31 | CN1CCN(c2ccc(Nc3ncc4cnn(-c5ccc6cc[nH]c6c5)c4n3)cc2)CC1 [Compound 41] | 1000 to 5000 nM | 10 to 100 nM |  | 1000 to 5000 nM | 
32 | CN1CCN(c2ccc(Nc3ncc4cnn(-c5ccc(F)c(C(C)(C)O)c5)c4n3)cc2)CC1 [Compound 42] | 100 to 1000 nM | 10 to 100 nM |  | 100 to 1000 nM | 
33 | CN1CCN(c2ccc(Nc3ncc4cnn(-c5cccc6c5CCC6(C)O)c4n3)cc2)CC1 (centres unmarked) [Compound 44] | 100 to 1000 nM | 100 to 1000 nM |  | 100 to 1000 nM | 
34 | CN1CCN(c2ccc(Nc3ncc4cnn(-c5ccc6c(c5)C(=O)NC6)c4n3)cc2)CC1 [Compound 46] | 1000 to 5000 nM | 10 to 100 nM |  | 100 to 1000 nM | 
